“Also recorded” adds a separate entry of the source. Where a SMILES comes first, the peptide text is derived from it. Bridges are numbered along the chain shown (N, C = ends).
Experiments:
[1] = tested on: honey bees (Apis mellifera); experiment: Appetitive olfactory learning (conditioning of proboscis extension reflex); type: in vivo; conditions: for change of conditioned responses in last conditioning trial vs vehicle (GLM coefficient ± standard error): ~200 nl into head haemolymph 1 h before conditioning; for effect on olfactory learning performance, in words: injected into the head before conditioning, range of concentrations, vs vehicle-injected controls, Fig 9
Description: For behavioral experiments, bees departing from the hive (mostly foragers) were chosen as they usually show good motivation and learning ability. Each cold-anesthetized animal was introduced into a metal holder and fixed to it in order to restrain all movements of the appendages apart from those of the antennae and proboscis. Each bee was then fed with 5 μl of a sucrose solution (50% w/w in water), and its median ocellus was removed to allow injection of allatostatin into the head capsule. All bees were then placed in a dark, warm (25°C) and humidified compartment for 3 hours, before the experiments began.
(§1) The vehicle for allatostatins was a saline solution made of PBS containing the protease blocker, 1 mM PMSF (prepared from a 30mM stock solution in 100% ethanol, final concentration of ethanol 3.3%).
(§2) The allatostatins were injected into the head haemolymph after penetrating the median ocellus, either 1 hour before olfactory conditioning or sucrose responsiveness assessment, or immediately after olfactory conditioning. All injections were performed under a binocular microscope. A micromanipulator-controlled Hamilton syringe (Nanofil, equipped with a NF33BV2 needle, WPI) was used to inject approximately 200 nl of peptide solution. To make sure that the solution was properly injected, it was pushed out of the syringe so that a drop was visible and then the drop was put in contact with the haemolymph where it was quickly absorbed thanks to the respiratory movements of the bee. Any bee with excessive bleeding was discarded.
Associative conditioning of the proboscis extension reflex was used to monitor effects of allatostatin treatment on appetitive olfactory learning performance. Olfactory stimuli were prepared shortly before conditioning by inserting a small piece of filter paper soaked with 4μl of pure odorant (from Sigma-Aldrich, Lyon, France) in one of the 8 channels of a custom-made, computer-driven olfactometer (P. Arrufat, Research Center on Animal Cognition, Toulouse, France). Immediately before conditioning, the integrity of the proboscis extension reflex was checked by touching both antennae with a 50% (w/w in water) sucrose solution. Olfactory conditioning of this reflexive response was carried out following a standard protocol consisting of three paired presentations of the odor (conditioned stimulus, CS) with 50% sucrose (the unconditioned stimulus, US) separated by a 10-min interval. Each trial included a familiarization phase in which the bee was placed in the conditioning set up for 13 s before forward pairing of the CS-US. The CS (1-nonanol) was delivered to the bee through an airflow for 4 s, and the US (sucrose solution) for 3 s, with a 1 s CS-US overlap. The US was presented by gently touching the antennae to elicit the PER; as soon as the bee extended its proboscis it was allowed to lick the toothpick. This sequence was controlled by the computer-driven olfactometer.
(§3) Functional data (receptor-mediated calcium, cAMP signals and binding) were plotted and regression curves were fitted using the GraphPad Prism software (San Diego, CA). The learning data were analyzed with generalized linear effects modeling (GLM) for binomial data using the R package lme4 [67]. Response levels recorded in the last conditioning trial were used to assess the effect of treatment on learning. For 1-hour memory and generalization tests, effects of allatostatin treatment were compared for each odor tested. Generalized linear mixed effects modeling (GLMM) was also used to analyze responsiveness to sucrose, with concentration and treatment as fixed factors and the bee identity and solution presented (either sucrose or water) as random factors. […] All statistics were generated in R [68].

[2] = tested on: honey bees (Apis mellifera); experiment: Sucrose responsiveness assessment; type: in vivo; conditions: 1μM; for sensitivity to sucrose vs control (GLM coefficient ± standard error) / sensitivity to water vs control (GLM coefficient ± standard error): injected 1h before test; for sensitivity to sucrose vs control (GLM coefficient ± standard error): sucrose 0.1–30%, ASTA p = 0.76, ASTC p = 0.55, ASTCC p = 0.13, N = 35, 49, 29 (Fig 10A); for sensitivity to water vs control (GLM coefficient ± standard error): ASTA p = 0.44, ASTC p = 0.30, ASTCC p = 0.22, N = 35, 49, 29
Description: as §1, §2
Since sucrose was presented diluted in water, bees were given water ad libitum immediately before testing to ensure that their responses would be elicited by sucrose only. We followed a published protocol: six sucrose solutions of increasing concentration (0.1%, 0.3%, 1%, 3%, 10% and 30%) were presented in succession to the antennae, interspersed with water stimulations to avoid sensitization. For each animal, the presence or absence of a proboscis extension response to each stimulus was recorded.
as §3

[3] = 10^-6M, ASTA p<0.01, ASTC p<0.05, ASTCC p<0.001

Row | Structure (SMILES) | change of conditioned responses in last conditioning trial vs vehicle (GLM coefficient ± standard error) ([1]; 10^-3M, ASTCC p<0.05) | change of conditioned responses in last conditioning trial vs vehicle (GLM coefficient ± standard error) ([1]; 10^-4M, ASTA p<0.01, ASTCC p<0.01) | change of conditioned responses in last conditioning trial vs vehicle (GLM coefficient ± standard error) [1, 3] | change of conditioned responses in last conditioning trial vs vehicle (GLM coefficient ± standard error) ([1]; 10^-7M, ASTCC p<0.001) | effect on olfactory learning performance, in words [1] | effect on olfactory learning performance, in words ([1]; listed as ASTCC) | responsiveness to sucrose or water / feeding, in words [2] | sensitivity to sucrose vs control (GLM coefficient ± standard error) [2] | sensitivity to water vs control (GLM coefficient ± standard error) [2] | change of conditioned responses in last conditioning trial vs vehicle (GLM coefficient ± standard error) ([1]; 10^-5M, ASTA p<0.05, ASTC p<0.05) | effect on olfactory learning performance, in words ([1]; listed as ASTC)
1 | CC(C)[C@@H]1NC(=O)[C@H](C)NC(=O)[C@H](CC(N)=O)NC(=O)[C@H](Cc2ccccc2)NC(=O)[C@H](Cc2ccc(O)cc2)NC(=O)[C@@H](NC(=O)[C@H](CCCNC(=N)N)NC(=O)[C@H](Cc2c[nH]c3ccccc23)NC(=O)[C@H](Cc2ccc(O)cc2)NC(=O)[C@@H](NC(=O)[C@H](CCCNC(=N)N)NC(=O)CNC(=O)[C@H](CCCCN)NC(=O)[C@H](C)NC(=O)[C@H](CCC(N)=O)NC(=O)CN)C(C)C)CSSC[C@@H](C(=O)N[C@@H](Cc2ccccc2)C(=O)O)NC(=O)[C@H]([C@@H](C)O)NC1=O [Apime-ASTCC] (H-GQAKGRVYWRCYFNAVTCF-OH; disulfide 11-18; N-terminus assumed) | -1.04±0.45 | -1.35±0.44 | -1.75±0.43 | -1.59±0.44 | the effects of each peptide were dose-dependent | apparent at much lower doses than effects of ASTC; also recorded: significant, dose-dependent (yet not linear) decrease in the percentage of bees that learned | responded as well to 50% sucrose stimulations as control bees | 1.21±0.81 | 0.90±0.74 | – | –
2 | CC(C)[C@@H]1NC(=O)[C@H](C)NC(=O)[C@H](CC(N)=O)NC(=O)[C@H](Cc2ccccc2)NC(=O)[C@H](C)NC(=O)[C@@H](NC(=O)[C@H](CCC(N)=O)NC(=O)[C@H](CCCCN)NC(=O)[C@H](Cc2c[nH]c3ccccc23)NC(=O)[C@H](Cc2ccc(O)cc2)NC(=O)[C@@H](N)CO)CSSC[C@@H](C(=O)N[C@@H](Cc2ccccc2)C(N)=O)NC(=O)[C@H](CO)NC1=O [Apime-ASTC] (H-SYWKQCAFNAVSCF-NH2; disulfide 6-13; N-terminus assumed) | – | – | -0.91±0.41 | – | the effects of each peptide were dose-dependent | – | responded as well to 50% sucrose stimulations as control bees | 0.41±0.68 | -0.71±0.68 | -0.84±0.42 | significant, dose-dependent (yet not linear) decrease in the percentage of bees that learned
